Read-outs that look alike come from different tables or passages of the source.
Target: b-Raf (V600E) (Homo sapiens (Human), UniProt P15056, V600E)
Details: read-out: b-Raf IC-50, AlphaScreen
[1] = 60 min pre-incubation, 3 hours reaction
[2] = 60 min pre-incubation, reaction 3 hours at room temperature

b-Raf (V600E), sequence (P15056 whole entry V600E): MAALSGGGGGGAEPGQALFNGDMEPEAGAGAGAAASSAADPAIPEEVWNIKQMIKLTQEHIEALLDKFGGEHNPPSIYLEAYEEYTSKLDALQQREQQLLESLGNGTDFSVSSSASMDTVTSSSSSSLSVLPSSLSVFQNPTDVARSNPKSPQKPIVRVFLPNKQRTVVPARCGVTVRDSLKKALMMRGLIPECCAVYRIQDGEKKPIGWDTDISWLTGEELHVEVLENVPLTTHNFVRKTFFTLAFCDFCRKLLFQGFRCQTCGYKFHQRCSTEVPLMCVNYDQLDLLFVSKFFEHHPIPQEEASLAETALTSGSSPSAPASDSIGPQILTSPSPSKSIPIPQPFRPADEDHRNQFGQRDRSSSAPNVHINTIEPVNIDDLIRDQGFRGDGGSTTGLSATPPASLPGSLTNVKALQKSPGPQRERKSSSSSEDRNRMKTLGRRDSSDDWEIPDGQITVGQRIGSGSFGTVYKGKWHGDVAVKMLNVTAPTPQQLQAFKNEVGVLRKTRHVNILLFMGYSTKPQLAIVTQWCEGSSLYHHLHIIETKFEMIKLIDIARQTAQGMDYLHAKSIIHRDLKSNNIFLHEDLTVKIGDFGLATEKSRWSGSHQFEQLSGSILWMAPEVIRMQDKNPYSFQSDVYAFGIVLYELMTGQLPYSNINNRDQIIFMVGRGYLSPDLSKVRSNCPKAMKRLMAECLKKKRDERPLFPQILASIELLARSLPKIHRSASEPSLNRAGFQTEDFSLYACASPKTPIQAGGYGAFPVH

| SMILES | IC50 (Table 2, 3 hours reaction) [nM] | IC50 [1] [nM] | other results |
| --- | --- | --- | --- |
| CCOc1ncc(-c2cc(NC(=O)c3cc(C(F)(F)F)c(=O)n(CC)c3)cnc2C)cc1N1CCOCC1 [Example 241, N-(6′-ethoxy-2-methyl-5′-morpholino-[3,3′-bipyridin]-5-yl)-1-ethyl-6-oxo-5-(trifluoromethyl)-1,6-dihydropyridine-3-carboxamide] | 5.7 | – | – |
| Cc1ccc(NC(=O)c2cc(C(F)(F)F)ccn2)cc1-c1cc(N2CCOCC2)c(=O)n(C)c1 [Example 364, N-(4-methyl-3-(1-methyl-5-morpholino-6-oxo-1,6-dihydropyridin-3-yl)phenyl)-4-(trifluoromethyl)picolinamide] | 2.1 | – | – |
| Cn1cc(-c2cc(NC(=O)c3ccnc(C(C)(F)F)c3)cnc2Cl)cc(N2CCOCC2)c1=O [Example 405, N-(2-chloro-1′-methyl-5′-morpholino-6′-oxo-1′,6′-dihydro-[3,3-bipyridin]-5-yl)-2-(1,1-difluoroethyl)isonicotinamide] | 4.5 | – | – |
| Cc1ncc(NC(=O)c2cnnc(C(F)(F)F)c2)cc1-c1cnc(N(C)C)c(N2CCOCC2)c1 [Example 270, N-(6′-(dimethylamino)-2-methyl-5′-morpholino-[3,3′-bipyridin]-5-yl)-6-(trifluoromethyl)pyridazine-4-carboxamide] | 0.5 | – | – |
| CCn1cc(C(=O)Nc2ccc(C)c(-c3cc(N4CCOCC4)c(=O)n(C)n3)c2)cc(C(F)(F)F)c1=O [Example 641, 1-ethyl-N-(4-methyl-3-(1-methyl-5-morpholino-6-oxo-1,6-dihydropyridazin-3-yl)phenyl)-6-oxo-5-(trifluoromethyl)-1,6-dihydropyridine-3-carboxamide] | – | 2.7 | – |
| Cc1ncc(NC(=O)c2cc(CN(C)C)cc(C(F)(F)F)c2)cc1-c1ccc(C#N)c(N2CCOCC2)c1 [Example 685, N-(5-(4-cyano-3-morpholinophenyl)-6-methylpyridin-3-yl)-3-((dimethylamino)methyl)-5-(trifluoromethyl)benzamide] | – | 21.4 | – |
| Cc1ccc(NC(=O)c2cnnc(C(C)(C)C#N)c2)cc1-c1cc(N2CCOCC2)c(=O)n(C)c1 [Example 360, 6-(2-cyanopropan-2-yl)-N-(4-methyl-3-(1-methyl-5-morpholino-6-oxo-1,6-dihydropyridin-3-yl)phenyl)pyridazine-4-carboxamide] | 6 | – | – |
| Cc1ccc(NC(=O)c2ccnc(C(F)(F)F)c2)cc1-c1cc(N2CCOCC2)n(C)c(=O)c1 [Example 485, N-(4-methyl-3-(1-methyl-6-morpholino-2-oxo-1,2-dihydropyridin-4-yl)phenyl)-2-(trifluoromethyl)isonicotinamide] | – | 1.1 | – |
| CCNc1nc(-c2cc(NC(=O)c3ccnc(C(C)(C)C)c3)cnc2C)cc(N2CCOCC2)n1 [Example 724, 2-(tert-butyl)-N-(5-(2-(ethylamino)-6-morpholinopyrimidin-4-yl)-6-methylpyridin-3-yl)isonicotinamide] | – | 20.5 | – |
| Cc1ncc(NC(=O)c2ccnc(C(F)F)c2)cc1-c1cncc(N2CCOCC2)n1 [Example 535, 2-(difluoromethyl)-N-(6-methyl-5-(6-morpholinopyrazin-2-yl)pyridin-3-yl)isonicotinamide] | – | 45.5 | – |
| Cc1ncc(NC(=O)c2ccnc(C(C)(C)O)c2)cc1-c1cc(N2CCOCC2)c(OC2CCOCC2)nn1 [Example 634, 2-(2-hydroxypropan-2-yl)-N-(6-methyl-5-(5-morpholino-6-((tetrahydro-2H-pyran-4-yl)oxy)pyridazin-3-yl)pyridin-3-yl)isonicotinamide] | – | 17.1 | – |
| CCc1cc(C(=O)Nc2ccc(C)c(-c3cc(N4CCOCC4)n(C)c(=O)c3)c2)ccn1 [Example 476, 2-ethyl-N-(4-methyl-3-(1-methyl-6-morpholino-2-oxo-1,2-dihydropyridin-4-yl)phenyl)isonicotinamide] | – | 0.6 | – |
| CCC(F)(F)c1cc(C(=O)Nc2cnc(C)c(-c3cc(N4CCOCC4)n4nccc4n3)c2)ccn1 [Example 800, 2-(1,1-difluoropropyl)-N-(6-methyl-5-(7-morpholinopyrazolo[1,5-a]pyrimidin-5-yl)pyridin-3-yl)isonicotinamide] | – | 2 | – |
| Cc1ccc(NC(=O)c2ccnc(S(C)(=O)=O)c2)cc1-c1cnc(OC(C)C)c(N2CCOCC2)c1 [Example 950, N-(3-(6-isopropoxy-5-morpholinopyridin-3-yl)-4-methylphenyl)-2-(methylsulfonyl)isonicotinamide] | – | – | IC50 [2]: 0.47 nM |
| Cc1ncc(NC(=O)c2ccc(C(O)CO)c(C(F)(F)F)c2)cc1-c1cc(N2CCOCC2)c2nccn2n1 (stereo not drawn) [Example 873, 4-(1,2-dihydroxyethyl)-N-(6-methyl-5-(8-morpholinoimidazo[1,2-b]pyridazin-6-yl)pyridin-3-yl)-3-(trifluoromethyl)benzamide] | – | – | IC50 [2]: 2.8 nM |
| CCOc1ncc(-c2cc(NC(=O)c3cccc(S(C)(=O)=O)c3)ccc2C)cc1N1CCOCC1 [Example 229, N-(3-(6-ethoxy-5-morpholinopyridin-3-yl)-4-methylphenyl)-3-(methylsulfonyl)benzamide] | 0.7 | – | – |
| CCOc1ncc(-c2cc(NC(=O)c3ccnc(C4CC4)c3)cnc2C)cc1N1CCOCC1 [Example 254, 2-cyclopropyl-N-(6′-ethoxy-2-methyl-5′-morpholino-[3,3′-bipyridin]-5-yl)isonicotinamide] | 1.8 | – | – |

| SMILES | IC50 (Table 2, 3 hours reaction) [nM] | IC50 [1] [nM] | other results |
| --- | --- | --- | --- |
| Cc1ccc(NC(=O)c2cc(C(C)(C)F)ccn2)cc1-c1cc(N2CCOCC2)c(=O)n(C)c1 [Example 907, 4-(2-fluoropropan-2-yl)-N-(4-methyl-3-(1-methyl-5-morpholino-6-oxo-1,6-dihydropyridin-3-yl)phenyl)picolinamide] | – | – | IC50 [2]: 4.43 nM |
| Cc1ncc(NC(=O)c2ccccc2)cc1-c1cc(N2CCOCC2)n(C)c(=O)c1 [Example 503, N-(1′,2-dimethyl-6′-morpholino-2′-oxo-1′,2′-dihydro-[3,4′-bipyridin]-5-yl)benzamide] | – | 200 | – |
| CCOc1ccc(-c2cc(NC(=O)c3ccnc(C(C)(C)F)c3)cnc2C)nc1N1CCOCC1 [Example 1027, N-(5-ethoxy-2′-methyl-6-morpholino-[2,3′-bipyridin]-5′-yl)-2-(2-fluoropropan-2-yl)isonicotinamide] | – | – | IC50 [2]: 8.48 nM |
| Cc1ncc(NC(=O)c2cccc(C(C)(C)C#N)c2)cc1-c1cc(N2CCOCC2)c(=O)n(C)c1 [Example 389, 3-(2-cyanopropan-2-yl)-N-(1′,2-dimethyl-5′-morpholino-6′-oxo-1′,6′-dihydro-[3,3′-bipyridin]-5-yl)benzamide] | 64.2 | – | – |
| Cc1ncc(NC(=O)c2ccnc(C(C)(C)F)c2)cc1-c1cc(NCCO)nc(N2CCOC[C@H]2C)c1 [Example 1138, (R)-2-(2-fluoropropan-2-yl)-N-(2′-((2-hydroxyethyl)amino)-2-methyl-6′-(3-methylmorpholino)-[3,4′-bipyridin]-5-yl)isonicotinamide] | – | – | IC50 [2]: 27.8 nM |
| Cc1ncc(NC(=O)c2cccc(C(F)(F)F)c2)cc1-c1cnc(OC2CC3(COC3)C2)c(N2CCOCC2)c1 [Example 322, N-(6′-(2-oxaspiro[3.3]heptan-6-yloxy)-2-methyl-5′-morpholino-[3,3′-bipyridin]-5-yl)-3-(trifluoromethyl)benzamide] | 1.1 | – | – |
| Cc1ccc(NC(=O)c2cccc(C(C)(C)C#N)c2)cc1-c1cc(N2CCOCC2)c2nccn2n1 [Example 846, 3-(2-cyanopropan-2-yl)-N-(4-methyl-3-(8-morpholinoimidazo[1,2-b]pyridazin-6-yl)phenyl)benzamide] | – | 0.6 | – |
| Cc1ccc(NC(=O)c2cnnc(C(C)(C)C#N)c2)cc1-c1cc(OC2CCOCC2)nc(N2CCOCC2)c1 [Example 1153, 6-(2-cyanopropan-2-yl)-N-(4-methyl-3-(2-morpholino-6-((tetrahydro-2H-pyran-4-yl)oxy)pyridin-4-yl)phenyl)pyridazine-4-carboxamide] | – | – | IC50 [2]: 2.15 nM |
| Cc1ccc(NC(=O)c2ccnc(C(C)(C)C#N)c2)cc1-c1cc(N2CCOCC2)c(OCCO)nn1 [Example 591, 2-(2-cyanopropan-2-yl)-N-(3-(6-(2-hydroxyethoxy)-5-morpholinopyridazin-3-yl)-4-methylphenyl)isonicotinamide] | – | 2.1 | – |
| Cc1ncc(NC(=O)c2ccnc(C(C)(F)F)c2)cc1-c1cc(N2CCOCC2)c2nccn2c1 [Example 879, 2-(1,1-difluoroethyl)-N-(6-methyl-5-(8-morpholinoimidazo[1,2-a]pyridin-6-yl)pyridin-3-yl)isonicotinamide] | – | – | IC50 [2]: 6.1 nM |
| CCOc1cc(C(=O)Nc2ccc(C)c(-c3cc(N4CCOCC4)c(=O)n(C)c3)c2)ccc1F [Example 344, 3-ethoxy-4-fluoro-N-(4-methyl-3-(1-methyl-5-morpholino-6-oxo-1,6-dihydropyridin-3-yl)phenyl)benzamide] | 3.1 | – | – |
| CCOc1ncc(-c2cc(NC(=O)c3cccc(C(F)(F)F)c3)cnc2C)nc1N1CCOCC1 [Example 539, N-(5-(5-ethoxy-6-morpholinopyrazin-2-yl)-6-methylpyridin-3-yl)-3-(trifluoromethyl)benzamide] | – | 2.8 | – |
| Cc1ccc(NC(=O)c2cncc(C(F)(F)F)c2)cc1-c1cc(N2CCOCC2)c(=O)n(C)c1 [Example 904, N-(4-methyl-3-(1-methyl-5-morpholino-6-oxo-1,6-dihydropyridin-3-yl)phenyl)-5-(trifluoromethyl)nicotinamide] | – | – | IC50 [2]: 2.01 nM |
| Cc1ccc(NC(=O)c2ccnc(C(C)C)c2)cc1-c1cc(N2CCOCC2)nc(N2CC(O)C2)c1 [Example 1069, N-(3-(2-(3-hydroxyazetidin-1-yl)-6-morpholinopyridin-4-yl)-4-methylphenyl)-2-isopropylisonicotinamide] | – | – | IC50 [2]: 2.64 nM |
| COc1nnc(-c2cc(NC(=O)c3ccnc(C4CC4)c3)ccc2C)cc1N1CCOCC1 [Example 550, 2-cyclopropyl-N-(3-(6-methoxy-5-morpholinopyridazin-3-yl)-4-methylphenyl)isonicotinamide] | – | 1.2 | – |
| Cc1ccc(NC(=O)c2cnnc(C(C)(C)C#N)c2)cc1-c1cc(N2CCOCC2)c(=O)n(C)n1 [Example 646, 6-(2-cyanopropan-2-yl)-N-(4-methyl-3-(1-methyl-5-morpholino-6-oxo-1,6-dihydropyridazin-3-yl)phenyl)pyridazine-4-carboxamide] | – | 8.4 | – |
